According to patent US9670142B2, “1,3-diaminocyclopentane carboxamide derivatives” (Merck Patent GmbH, priority 2013, dated 2017):

Molecular target: human fatty acid synthase FASN (Homo sapiens (Human), UniProt P49327)
Assay: Biochemical activity testing of human fatty acid synthase FASN (NADPH fluorescence intensity enzyme assay)
Conditions: human recombinant full-length fatty acid synthase
Method in brief: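 In-house Sf9-expressed full-length enzyme (3 μL of 40 nM) in 50 mM potassium phosphate pH 7.0 with glutathione, BSA and Tween-20, plus NADPH (2 μL of 200 μM), preincubated ≥15 min with compound (10 concentrations from 30 μM final, 1% DMSO). Acetyl-CoA/malonyl-CoA added; NADPH fluorescence (ex 340/em 460 nm) read before and after 30 min at room temperature, difference used for IC50.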

Chain of human fatty acid synthase FASN (P49327 whole entry): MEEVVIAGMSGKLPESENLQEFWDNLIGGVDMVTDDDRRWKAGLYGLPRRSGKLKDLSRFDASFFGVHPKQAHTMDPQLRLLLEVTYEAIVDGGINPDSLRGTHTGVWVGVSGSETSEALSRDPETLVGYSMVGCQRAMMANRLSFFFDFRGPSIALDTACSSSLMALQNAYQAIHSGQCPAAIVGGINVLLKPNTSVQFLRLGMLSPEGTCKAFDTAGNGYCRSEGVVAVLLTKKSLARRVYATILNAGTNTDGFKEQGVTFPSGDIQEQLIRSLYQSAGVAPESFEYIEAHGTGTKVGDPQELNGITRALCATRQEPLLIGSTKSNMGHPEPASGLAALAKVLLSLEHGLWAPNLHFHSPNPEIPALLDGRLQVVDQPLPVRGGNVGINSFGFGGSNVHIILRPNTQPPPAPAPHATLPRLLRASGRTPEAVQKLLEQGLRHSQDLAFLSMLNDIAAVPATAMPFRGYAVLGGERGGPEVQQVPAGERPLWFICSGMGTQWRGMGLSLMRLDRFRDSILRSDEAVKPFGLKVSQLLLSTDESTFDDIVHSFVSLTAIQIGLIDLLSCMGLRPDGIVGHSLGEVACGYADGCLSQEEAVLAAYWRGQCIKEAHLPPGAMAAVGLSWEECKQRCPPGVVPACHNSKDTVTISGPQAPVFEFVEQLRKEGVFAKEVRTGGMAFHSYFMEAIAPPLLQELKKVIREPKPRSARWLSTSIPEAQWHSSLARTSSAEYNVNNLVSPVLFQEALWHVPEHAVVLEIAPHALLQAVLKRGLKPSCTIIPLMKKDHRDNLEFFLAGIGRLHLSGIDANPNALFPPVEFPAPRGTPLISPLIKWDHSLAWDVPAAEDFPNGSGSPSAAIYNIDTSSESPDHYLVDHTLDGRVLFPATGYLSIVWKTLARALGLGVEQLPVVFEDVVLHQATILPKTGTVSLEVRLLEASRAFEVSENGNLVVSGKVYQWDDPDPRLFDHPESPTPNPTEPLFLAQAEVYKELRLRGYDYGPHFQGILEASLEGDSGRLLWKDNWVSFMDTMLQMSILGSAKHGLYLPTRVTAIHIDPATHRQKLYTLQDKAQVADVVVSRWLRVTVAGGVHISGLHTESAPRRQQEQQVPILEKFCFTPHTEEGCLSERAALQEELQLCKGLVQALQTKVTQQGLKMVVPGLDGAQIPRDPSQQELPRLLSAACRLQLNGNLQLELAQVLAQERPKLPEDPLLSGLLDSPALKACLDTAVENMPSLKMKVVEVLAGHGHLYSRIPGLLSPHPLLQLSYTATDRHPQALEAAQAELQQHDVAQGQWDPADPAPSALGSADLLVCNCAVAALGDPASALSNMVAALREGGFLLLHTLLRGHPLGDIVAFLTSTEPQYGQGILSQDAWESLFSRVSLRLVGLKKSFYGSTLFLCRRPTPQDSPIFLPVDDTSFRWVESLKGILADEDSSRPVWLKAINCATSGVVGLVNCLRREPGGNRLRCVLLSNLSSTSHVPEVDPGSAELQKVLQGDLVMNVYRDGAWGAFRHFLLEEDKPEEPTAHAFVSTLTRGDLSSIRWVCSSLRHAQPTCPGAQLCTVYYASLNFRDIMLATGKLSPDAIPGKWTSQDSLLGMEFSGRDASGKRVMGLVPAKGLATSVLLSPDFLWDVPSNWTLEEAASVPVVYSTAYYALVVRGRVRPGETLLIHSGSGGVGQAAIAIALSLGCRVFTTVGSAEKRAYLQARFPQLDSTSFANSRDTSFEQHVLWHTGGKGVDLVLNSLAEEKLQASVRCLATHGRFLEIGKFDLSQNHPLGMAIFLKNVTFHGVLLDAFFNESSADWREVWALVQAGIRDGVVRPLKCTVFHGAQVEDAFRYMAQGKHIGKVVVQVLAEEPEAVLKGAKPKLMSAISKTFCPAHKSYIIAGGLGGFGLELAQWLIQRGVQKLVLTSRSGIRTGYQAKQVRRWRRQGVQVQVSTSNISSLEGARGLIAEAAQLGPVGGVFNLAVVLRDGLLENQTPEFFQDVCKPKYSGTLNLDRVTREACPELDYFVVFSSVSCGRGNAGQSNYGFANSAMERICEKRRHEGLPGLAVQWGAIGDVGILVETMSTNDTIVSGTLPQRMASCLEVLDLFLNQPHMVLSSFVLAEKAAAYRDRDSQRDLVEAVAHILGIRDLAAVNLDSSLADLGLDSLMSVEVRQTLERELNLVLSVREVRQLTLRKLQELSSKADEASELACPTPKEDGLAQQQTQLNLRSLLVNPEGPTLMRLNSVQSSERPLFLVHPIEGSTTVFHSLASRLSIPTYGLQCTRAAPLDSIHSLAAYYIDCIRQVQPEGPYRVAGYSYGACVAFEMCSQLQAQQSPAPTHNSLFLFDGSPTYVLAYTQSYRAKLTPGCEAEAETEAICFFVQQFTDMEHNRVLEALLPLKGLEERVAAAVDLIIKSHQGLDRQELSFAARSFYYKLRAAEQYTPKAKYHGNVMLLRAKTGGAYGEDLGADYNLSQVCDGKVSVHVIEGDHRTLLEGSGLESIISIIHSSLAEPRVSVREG

SMILES	IC50 [µM]
CCC(=O)N[C@H]1CC[C@@H](N(C)C(=O)c2ccc(-c3ccc4[nH]ccc4c3F)nc2)C1 [Compound A135, 6-(4-fluoro-1H-indol-5-yl)-N-methyl-N-((1R,3S)-3-propionylamino-cyclopentyl)-nicotinamide]	< 0.3
CCC(=O)N[C@H]1CC[C@@H](N(C)C(=O)c2ccc(-c3cc(C)c4[nH]ncc4c3)cn2)C1 [Compound A104, 5-(7-methyl-1H-indazol-5-yl)-pyridine-2-carboxylic acid methyl-((1R,3S)-3-propionylamino-cyclopentyl)-amide]	< 0.3
CCC(=O)N[C@H]1CC[C@@H](N(C)C(=O)c2ccc(-c3ccc(C(=O)O)cc3)cc2)C1 [Compound A51, 4′-[methyl-((1R,3S)-3-propionylamino-cyclopentyl)-carbamoyl]-biphenyl-4-carboxylic acid]	< 0.3
CCC(=O)N[C@H]1CC[C@@H](N(C)C(=O)c2ccc(-c3ccc4[nH]ccc4c3)cc2)C1 [Compound A95, 4-(1H-indol-5-yl)-N-methyl-N-((1R,3S)-3-propionylamino-cyclopentyl)-benzamide]	< 0.3
CCC(=O)N[C@H]1CC[C@@H](N(C)C(=O)c2ccc(-c3cc(F)c4[nH]ccc4c3)nn2)C1 [Compound A136, 6-(7-fluoro-1H-indol-5-yl)-pyridazine-3-carboxylic acid methyl-((1R,3S)-3-propionylamino-cyclopentyl)-amide]	0.3 to 3
CCC(=O)N[C@H]1CC[C@@H](N(C)C(=O)c2ccc(-c3ccc4cnn(C)c4c3)cc2)C1 [Compound A74, N-methyl-4-(1-methyl-1H-indazol-6-yl)-N-((1R,3S)-3-propionylamino-cyclopentyl)-benzamide]	< 0.3
CN(C(=O)c1ccc(-c2nc3ccccc3o2)cc1)[C@@H]1CC[C@H](NC(=O)C2(C)CC2)C1 [Compound A3, 4-benzoxazol-2-yl-N-methyl-N-{(1R,3S)-3-[(1-methyl-cyclopropanecarbonyl)-amino]-cyclopentyl}-benzamide]	< 0.3
CO[C@@H](C)C(=O)N[C@H]1CC[C@@H](N(C)C(=O)c2ccc(-c3nc4ccccc4o3)cc2)C1 [Compound A33, 4-benzoxazol-2-yl-N-[(1R,3S)-3-((S)-2-methoxy-propionylamino)-cyclopentyl]-N-methyl-benzamide]	< 0.3
CN(C(=O)c1ccc(-c2nc3ccccc3o2)cc1)[C@@H]1CC[C@H](NC(=O)C2CC2)C1 [Compound A2, 4-benzoxazol-2-yl-N-[(1R,3S)-3-(cyclopropanecarbonyl-amino)-cyclopentyl]-N-methyl-benzamide]	< 0.3
CCC(=O)N[C@H]1CC[C@@H](N(C)C(=O)c2ccc(-c3ccc4[nH]nnc4c3)cc2)C1 [Compound A91, 4-(1H-benzotriazol-5-yl)-N-methyl-N-((1R,3S)-3-propionylamino-cyclopentyl)-benzamide]	< 0.3
CCC(=O)N[C@H]1CC[C@@H](N(C)C(=O)c2ccc(-c3ccc(F)c(Cl)c3)cc2)C1 [Compound A63, 3′-chloro-4′-fluoro-biphenyl-4-carboxylic acid methyl-((1R,3S)-3-propionylamino-cyclopentyl)-amide]	< 0.3
CCC(=O)N[C@H]1CC[C@@H](N(C)C(=O)c2ccc(-c3cc4cc[nH]c4cc3F)cc2)C1 [Compound A122, 4-(6-fluoro-1H-indol-5-yl)-N-methyl-N-((1R,3S)-3-propionylamino-cyclopentyl)-benzamide]	< 0.3
CCCCC(=O)N[C@H]1CC[C@@H](N(C)C(=O)c2ccc(-c3nc4ccccc4o3)cc2)C1 [Compound A24, 4-benzoxazol-2-yl-N-methyl-N-((1R,3S)-3-pentanoylamino-cyclopentyl)-benzamide]	< 0.3
CCC(=O)N[C@H]1CC[C@@H](N(C)C(=O)c2ccc(-c3ccc4[nH]nc(C)c4c3)cn2)C1 [Compound A105, 5-(3-methyl-1H-indazol-5-yl)-pyridine-2-carboxylic acid methyl-((1R,3S)-3-propionylamino-cyclopentyl)-amide]	< 0.3
CCC(=O)N[C@H]1CC[C@@H](N(C)C(=O)c2ccc(-c3ccncc3)cc2)C1 [Compound A4, N-methyl-N-((1R,3S)-3-propionylamino-cyclopentyl)-4-pyridin-4-yl-benzamide]	< 0.3
CCC(=O)N[C@H]1CC[C@@H](N(C)C(=O)c2ccc(-c3ccc4c(ccn4C)c3)nn2)C1 [Compound A118, 6-(1-methyl-1H-indol-5-yl)-pyridazine-3-carboxylic acid methyl-((1R,3S)-3-propionylamino-cyclopentyl)-amide]	< 0.3
CCC(=O)N[C@H]1CC[C@@H](N(C)C(=O)c2ccc(-c3ccc(F)cc3)cc2)C1 [Compound A53, 4′-fluoro-biphenyl-4-carboxylic acid methyl-((1R,3S)-3-propionylamino-cyclopentyl)-amide]	< 0.3
CCC(=O)N[C@H]1CC[C@@H](N(C)C(=O)c2ccc(-c3ccc(OC(F)(F)F)c(F)c3)cc2)C1 [Compound A98, 3′-fluoro-4′-trifluoromethoxy-biphenyl-4-carboxylic acid methyl-((1R,3S)-3-propionylamino-cyclopentyl)-amide]	< 0.3
CCC(=O)N[C@H]1CC[C@@H](N(C)C(=O)c2ccc(-c3ccc4[nH]ccc4c3)cc2C)C1 [Compound A120, 4-(1H-indol-5-yl)-2,N-dimethyl-N-((1R,3S)-3-propionylamino-cyclopentyl)-benzamide]	< 0.3
CN(C(=O)c1ccc(-c2nc3ccc(Cl)cc3o2)nc1)[C@@H]1CC[C@H](NC(=O)[C@@H]2CCCO2)C1 [Compound A154, 6-(6-chloro-benzoxazol-2-yl)-N-methyl-N-{(1R,3S)-3-[((S)-tetrahydro-furan-2-carbonyl)-amino]-cyclopentyl}-nicotinamide]	< 0.3
CCC(=O)N[C@H]1CC[C@@H](N(C)C(=O)c2ccc(-c3ccc4c(ccn4C)c3)cc2F)C1 [Compound A111, 2-fluoro-N-methyl-4-(1-methyl-1H-indol-5-yl)-N-((1R,3S)-3-propionylamino-cyclopentyl)-benzamide]	< 0.3
CCC(=O)N[C@H]1CC[C@@H](N(C)C(=O)c2ccc(-c3ccc4c(c3)c(CN)cn4C)cc2)C1 [Compound A152, 4-(3-aminomethyl-1-methyl-1H-indol-5-yl)-N-methyl-N-((1R,3S)-3-propionylamino-cyclopentyl)-benzamide]	< 0.3
CCC(=O)N[C@H]1CC[C@@H](N(C)C(=O)c2ccc(-c3ccc(C(F)(F)F)cc3)cc2)C1 [Compound A64, 4′-trifluoromethyl-biphenyl-4-carboxylic acid methyl-((1R,3S)-3-propionylamino-cyclopentyl)-amide]	< 0.3
CN(C(=O)c1cnc(-c2nc3ccc(Cl)cc3o2)cn1)[C@@H]1CC[C@H](NC(=O)[C@@H]2CCCO2)C1 [Compound A159, 5-(6-chloro-benzoxazol-2-yl)-pyrazine-2-carboxylic acid methyl-{(1R,3S)-3-[((S)-tetrahydro-furan-2-carbonyl)-amino]-cyclopentyl}-amide]	< 0.3
CCC(=O)N[C@H]1CC[C@@H](N(C)C(=O)c2ccc(-c3ccc4cn[nH]c4c3)cc2)C1 [Compound A46, 4-(1H-indazol-6-yl)-N-methyl-N-((1R,3S)-3-propionylamino-cyclopentyl)-benzamide]	< 0.3
